Values joined by “and” are separate entries in the source; they are usually repeats but may differ in a detail not shown here. Identical values can stand only once.
What was measured:
[1] = test system: CAL-120; assay: normalised viability (% of control), CellTiter-Blue; higher = more viable cells (about 100 = DMSO control); conditions: 100 nM; incubation time: 72 h
In short: (§1)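 384-well plates were pre-loaded with compound in 5 µl medium before 20 µl of breast cancer cell suspension was seeded. Following 72 h incubation, 2.5 µl CellTiter-Blue reagent was added for 2 h at 37 °C. Fluorescence was read at 560/590 nm and plates were normalised to vehicle (100) and a positive kill control (0), checked by Z'-factor. Normalised viability is reported at a single listed concentration of the series.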

[2] = test system: DU-4475; assay: as above; conditions: 10 nM; incubation time: 72 h
In short: as §1

[3] = test system: MDA-MB-453; assay: as above; conditions: 10 nM; incubation time: 72 h
In short: as §1

[4] = test system: BT-474; assay: as above; conditions: incubation time: 72 h
In short: as §1

[5] = test system: BT-549; assay: as above; conditions: incubation time: 72 h
In short: as §1

[6] = test system: CAL-120; assay: as above; conditions: incubation time: 72 h
In short: as §1

[7] = test system: CAL-148; assay: as above; conditions: incubation time: 72 h
In short: as §1

[8] = test system: CAL-51; assay: as above; conditions: incubation time: 72 h
In short: as §1

[9] = test system: CAL-85-1; assay: as above; conditions: incubation time: 72 h
In short: as §1

[10] = test system: DU-4475; assay: as above; conditions: incubation time: 72 h
In short: as §1

[11] = test system: HCC1143; assay: as above; conditions: incubation time: 72 h
In short: as §1

[12] = test system: HCC1599; assay: as above; conditions: incubation time: 72 h
In short: as §1

[13] = test system: HCC1937; assay: as above; conditions: incubation time: 72 h
In short: as §1

[14] = test system: HDQ-P1; assay: as above; conditions: incubation time: 72 h
In short: as §1

[15] = test system: Hs578T; assay: as above; conditions: incubation time: 72 h
In short: as §1

[16] = test system: MDA-MB-231; assay: as above; conditions: incubation time: 72 h
In short: as §1

[17] = test system: MDA-MB-436; assay: as above; conditions: incubation time: 72 h
In short: as §1

[18] = test system: MDA-MB-453; assay: as above; conditions: incubation time: 72 h
In short: as §1

[19] = test system: MDA-MB-468; assay: as above; conditions: incubation time: 72 h
In short: as §1

[20] = test system: MFM-223; assay: as above; conditions: incubation time: 72 h
In short: as §1

[21] = test system: SK-BR-3; assay: as above; conditions: incubation time: 72 h
In short: as §1

[22] = test system: CAL-51; assay: drug sensitivity score (DSS), CellTox Green (DSS (AUC-based score)); higher = stronger drug effect (viability inhibition or cytotoxicity); extreme values may be limits of the assay; conditions: incubation time: 72 h
In short: (§2)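 Breast cancer cell lines were seeded in 20 µl suspension into 384-well plates already holding compound and incubated for 72 h. Each compound was tested at 5 concentrations in 10-fold steps across its own 10,000-fold range. Plates were normalised to 0.1 % DMSO and a positive kill control after CellTox Green and then CellTiter-Glo readings. The area under the fitted dose-response curve served as the basis for the drug sensitivity score.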

[23] = test system: HCC1143; assay: as above; conditions: incubation time: 72 h
In short: as §2

[24] = test system: MDA-MB-453; assay: as above; conditions: incubation time: 72 h
In short: as §2

O=S(=O)(c1cccc2cnccc12)N1CCCNCC1 [Fasudil]
Conditions	drug sensitivity score	normalised viability [%]
[1]	–	89.4
[2]	–	107
[3]	–	103
[22]	0	–
[23]	0	–
[24]	0	–

normalised viability [%]
Conditions	3 nM	10 nM	30 nM	100 nM	1000 nM	10000 nM
[4]	–	112	–	–	112	126
[5]	–	93.3	–	–	95.2	107
[6]	–	87.9	–	–	84.4	92
[7]	81	–	90.1	90.2	–	–
[8]	118	–	108	116	–	–
[9]	96.6	–	90.4	93.3	–	–
[10]	100	–	109	101	–	–
[11]	–	85.1	–	–	96.2	80.2
[12]	–	99.9	–	–	102	117
[13]	–	122	–	–	105	90.6
[14]	111	–	99	117	–	–
[15]	–	98.4	–	–	114	116
[16]	–	98.8	–	–	110	127
[17]	–	83.5	–	–	108	107
[18]	112	–	116	109	–	–
[19]	–	106	–	–	110	105
[20]	–	102	–	–	89	77.7
[21]	–	94.7	–	–	95.7	109

Cc1c(CN2CCN(C(=O)[C@H](C)O)CC2)sc2c(N3CCOCC3)nc(-c3cnc(N)nc3)nc12 [GDC-0980]
Conditions	drug sensitivity score	normalised viability [%]
[1]	–	71.7
[2]	–	92.7
[3]	–	96.1
[22]	6.08	–
[23]	3.43	–
[24]	0	–

normalised viability [%]
Conditions	3 nM	10 nM	30 nM	100 nM	1000 nM	10000 nM
[4]	–	115	–	–	22.1	12.3
[5]	–	88.7	–	–	33.3	13.6
[6]	–	103	–	–	24.1	13.7
[7]	100	–	94.5	87.6	–	–
[8]	112	–	98.5	71.9	–	–
[9]	102	–	83.3	89.2	–	–
[10]	102	–	82.1	83.5	–	–
[11]	–	88.7	–	–	33.8	15.6
[12]	–	95	–	–	39.7	35.3
[13]	–	113	–	–	39.7	26.2
[14]	91.9	–	84.3	70.8	–	–
[15]	–	121	–	–	28.9	17.1
[16]	–	95.6	–	–	27.6	23.6
[17]	–	81.2	–	–	44.7	18.2
[18]	116	–	77.8	56.1	–	–
[19]	–	105	–	–	44.4	10.7
[20]	–	86.1	–	–	18.1	14.2
[21]	–	102	–	–	15.9	9.04

Nc1cccc2c1CN(C1CCC(=O)NC1=O)C2=O (stereo not given) [Lenalidomide]
Conditions	drug sensitivity score	normalised viability
[1]	–	71.4% and 84.9%
[2]	–	103% and 112%
[3]	–	93% and 103%
[22]	0	–
[23]	0	–
[24]	0	–

normalised viability
Conditions	3 nM	10 nM	30 nM	100 nM	1000 nM	10000 nM
[4]	–	104% and 109%	–	–	117% and 107%	117% and 104%
[5]	–	94.5% and 88.9%	–	–	94.5% and 95.7%	89.3% and 101%
[6]	–	76% and 81.3%	–	–	80.2% and 81.1%	84.4% and 80.2%
[7]	78.6% and 91.8%	–	86% and 94.3%	86.9% and 89.8%	–	–
[8]	106% and 108%	–	99.4% and 99.6%	99.9% and 97.6%	–	–
[9]	82.3% and 93%	–	76.5% and 84.1%	86% and 96.7%	–	–
[10]	92.4% and 107%	–	89.8% and 80.5%	94.3% and 93.8%	–	–
[11]	–	76.4% and 66.6%	–	–	89.1% and 70%	72% and 72.4%
[12]	–	82.8% and 82.1%	–	–	91.9% and 86.6%	113% and 103%
[13]	–	92.3% and 85.5%	–	–	86.2% and 84.6%	78.2% and 87.7%
[14]	95.7% and 91.8%	–	106% and 83.8%	92.3% and 86.8%	–	–
[15]	–	107% and 99.5%	–	–	111% and 97.7%	100% and 95.5%
[16]	–	89% and 86.3%	–	–	79.1% and 103%	92.3% and 103%
[17]	–	98.1% and 99.7%	–	–	85% and 101%	107% and 112%
[18]	107% and 106%	–	89.3% and 94.9%	96.6% and 103%	–	–
[19]	–	103% and 111%	–	–	105% and 99.7%	93.5% and 106%
[20]	–	87.7% and 85.8%	–	–	90.2% and 96.7%	100% and 104%
[21]	–	104% and 93.7%	–	–	94.7% and 95.1%	86.8% and 101%

Source: the supplement of paper PMC4862054
